Laboratory results reported in patent US12037583B2, “Compositions and methods for immunooncology” (Novartis AG, priority 2015, dated 2024).

Columns and labels:
PDCD1 = assay: NGS editing of PDCD1 by dgRNA in HEK cells stably expressing Cas9; type: cell-based, human; conditions: at least 3 experiments;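 also: dgRNA lipofected into Cas9-expressing HEK cells, lysed after 24 h, target amplicon sequenced, editing = reads carrying insertions or deletions as percent of all reads including wild type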
Text: Transfection of Cas9GFP-expressing HEK293 cells (HEK-293_Cas9GFP) was used for primary screening of target specific crRNAs. […] Selected crRNAs were chemically synthesized and delivered in a 96 well format. HEK-293-Cas9GFP cells were transfected with target crRNAs comprising a flagpole region of SEQ ID NO: 6607 in a 1:1 ratio with stock trRNA of SEQ ID NO: 6660. The transfection was mediated using lipofection technology according to manufacturer's protocol (DharmaFECT Duo, GE LifeSciences; or RNAiMax, LifeTechnologies). Transfected cells were lysed 24 h following lipofection and editing (e.g., cleavage) was detected within lysates with the T7E1 assay and/or next generation sequencing (NGS; below).
PCR primers were first designed around the target site, and the genomic area of interest PCR amplified. Additional PCR was performed according to manufacturer's protocols (Illumina) to add the necessary chemistry for sequencing. The amplicons were then sequenced on an Illumina MiSeq instrument. The reads were then aligned to the human reference genome (e.g., hg38) after eliminating those having low quality scores. From the resulting files containing the reads mapped to the reference genome (BAM files), reads which overlap the target region of interest were selected and the number of wild type reads versus the number of reads which contain an insertion or deletion was calculated. The editing percentage was then defined as the total number of reads with insertions or deletions over the total number of reads, including wild type. To determine the pattern of insertions and/or deletions that resulted from the edit, the aligned reads with indels were selected and the number of a reads with a given indel were summed.
Editing of CRISPR systems containing dgRNA molecules comprising targeting domains to sequences of PDCD1 were tested for editing in HEK (gRNA delivered to cells stably expressing Cas9) and CD3+ T cells (gRNA and Cas9 delivered as RNP) according to the methods described herein.
All mean editing % are as measured by NGS and are based on at least 3 experiments.

CIITA = assay: NGS editing and frameshift edit of CIITA by dgRNA in HEK293 cells expressing Cas9; type: cell-based, human; conditions: HEK293 cells stably expressing Cas9, dgRNA to CIITA; for Avg. % Edit: N = 3; for Avg. % FS: frameshift edit
Experimental: Editing of CIITA with dgRNAs targeted to the CIITA gene were assayed in HEK293 cells engineered to express Cas9, as described above in Example 1.

Row | Substance | HEK (NGS) % Editing Mean (PDCD1) [%] | Avg. % Edit (CIITA) [%] | Avg. % FS (CIITA) [%]
1 | CR000824: dgRNA targeting domain to PDCD1 (guide UCAGGCGGAGGUGAGCGGAA; targeting domain within dual guide RNA, chemistry not given here, further chemistry not given here; listed as Homo sapiens) | 54 | – | –
2 | CR000825: dgRNA targeting domain to PDCD1 (guide CUCAGGCGGAGGUGAGCGGA; targeting domain within dual guide RNA, chemistry not given here, further chemistry not given here; listed as Homo sapiens) | 46 | – | –
3 | CR000826: dgRNA targeting domain to PDCD1 (guide ACUGCUCAGGCGGAGGUGAG; targeting domain within dual guide RNA, chemistry not given here, further chemistry not given here; listed as Homo sapiens) | 70 | – | –
4 | CR000827: dgRNA targeting domain to PDCD1 (guide GCUCACCUCCGCCUGAGCAG; targeting domain within dual guide RNA, chemistry not given here, further chemistry not given here; listed as Homo sapiens) | 39 | – | –
5 | CR000828: dgRNA targeting domain to PDCD1 (guide CUUCUCCACUGCUCAGGCGG; targeting domain within dual guide RNA, chemistry not given here, further chemistry not given here; listed as Homo sapiens) | 69 | – | –
6 | CR000829: dgRNA targeting domain to PDCD1 (guide CAGUGGAGAAGGCGGCACUC; targeting domain within dual guide RNA, chemistry not given here, further chemistry not given here; listed as Homo sapiens) | 68 | – | –
7 | CR000830: dgRNA targeting domain to PDCD1 (guide UGGAGAAGGCGGCACUCUGG; targeting domain within dual guide RNA, chemistry not given here, further chemistry not given here; listed as Homo sapiens) | 57 | – | –
8 | CR000831: dgRNA targeting domain to PDCD1 (guide GGAGAAGGCGGCACUCUGGU; targeting domain within dual guide RNA, chemistry not given here, further chemistry not given here; listed as Homo sapiens) | 66 | – | –
9 | CR000832: dgRNA targeting domain to PDCD1 (guide GAGAAGGCGGCACUCUGGUG; targeting domain within dual guide RNA, chemistry not given here, further chemistry not given here; listed as Homo sapiens) | 49 | – | –
10 | CR000833: dgRNA targeting domain to PDCD1 (guide AGGCGCCCUGGCCAGUCGUC; targeting domain within dual guide RNA, chemistry not given here, further chemistry not given here; listed as Homo sapiens) | 34 | – | –
11 | CR000835: dgRNA targeting domain to PDCD1 (guide GCCCUGGCCAGUCGUCUGGG; targeting domain within dual guide RNA, chemistry not given here, further chemistry not given here; listed as Homo sapiens) | 69 | – | –
12 | CR000836: dgRNA targeting domain to PDCD1 (guide CACCGCCCAGACGACUGGCC; targeting domain within dual guide RNA, chemistry not given here, further chemistry not given here; listed as Homo sapiens) | 5 | – | –
13 | CR000840: dgRNA targeting domain to PDCD1 (guide GGGCGGUGCUACAACUGGGC; targeting domain within dual guide RNA, chemistry not given here, further chemistry not given here; listed as Homo sapiens) | 59 | – | –
14 | CR000841: dgRNA targeting domain to PDCD1 (guide CGGUGCUACAACUGGGCUGG; targeting domain within dual guide RNA, chemistry not given here, further chemistry not given here; listed as Homo sapiens) | 19 | – | –
15 | CR000842: dgRNA targeting domain to PDCD1 (guide CACCUACCUAAGAACCAUCC; targeting domain within dual guide RNA, chemistry not given here, further chemistry not given here; listed as Homo sapiens) | 40 | – | –
16 | CR000843: dgRNA targeting domain to PDCD1 (guide GAGAAGGUGGGGGGGUUCCA; targeting domain within dual guide RNA, chemistry not given here, further chemistry not given here; listed as Homo sapiens) | 8 | – | –

Row | Substance | HEK (NGS) % Editing Mean (PDCD1) [%] | Avg. % Edit (CIITA) [%] | Avg. % FS (CIITA) [%]
17 | CR000844: dgRNA targeting domain to PDCD1 (guide CGGUCACCACGAGCAGGGCU; targeting domain within dual guide RNA, chemistry not given here, further chemistry not given here; listed as Homo sapiens) | 25 | – | –
18 | CR000845: dgRNA targeting domain to PDCD1 (guide UCGGUCACCACGAGCAGGGC; targeting domain within dual guide RNA, chemistry not given here, further chemistry not given here; listed as Homo sapiens) | 21 | – | –
19 | CR000846: dgRNA targeting domain to PDCD1 (guide GCCCUGCUCGUGGUGACCGA; targeting domain within dual guide RNA, chemistry not given here, further chemistry not given here; listed as Homo sapiens) | 46 | – | –
20 | CR000847: dgRNA targeting domain to PDCD1 (guide CCCUUCGGUCACCACGAGCA; targeting domain within dual guide RNA, chemistry not given here, further chemistry not given here; listed as Homo sapiens) | 77 | – | –
21 | CR000848: dgRNA targeting domain to PDCD1 (guide CCCUGCUCGUGGUGACCGAA; targeting domain within dual guide RNA, chemistry not given here, further chemistry not given here; listed as Homo sapiens) | 65 | – | –
22 | CR000849: dgRNA targeting domain to PDCD1 (guide CCCCUUCGGUCACCACGAGC; targeting domain within dual guide RNA, chemistry not given here, further chemistry not given here; listed as Homo sapiens) | 29 | – | –
23 | CR000850: gRNA targeting domain to PDCD1, CCUGCUCGUGGUGACCGAAG (SEQ ID NO: 5746) (targeting domain within guide RNA, chemistry not given here, further chemistry not given here; listed as Homo sapiens) | 55 | – | –
24 | CR000851: dgRNA targeting domain to PDCD1 (guide GAAGGUGGCGUUGUCCCCUU; targeting domain within dual guide RNA, chemistry not given here, further chemistry not given here; listed as Homo sapiens) | 4 | – | –
25 | CR000852: dgRNA targeting domain to PDCD1 (guide GUUGGAGAAGCUGCAGGUGA; targeting domain within dual guide RNA, chemistry not given here, further chemistry not given here; listed as Homo sapiens) | 72 | – | –
26 | CR000853: gRNA targeting domain to PDCD1, CACGAAGCUCUCCGAUGUGU (SEQ ID NO: 5749) (targeting domain within guide RNA, chemistry not given here, further chemistry not given here; listed as Homo sapiens) | 33 | – | –
27 | CR000854: dgRNA targeting domain to PDCD1 (guide CGGAGAGCUUCGUGCUAAAC; targeting domain within dual guide RNA, chemistry not given here, further chemistry not given here; listed as Homo sapiens) | 24 | – | –
28 | CR000855: dgRNA targeting domain to PDCD1 (guide UCUGGUUGCUGGGGCUCAUG; targeting domain within dual guide RNA, chemistry not given here, further chemistry not given here; listed as Homo sapiens) | 61 | – | –
29 | CR000857: dgRNA targeting domain to PDCD1 (guide AGCUUGUCCGUCUGGUUGCU; targeting domain within dual guide RNA, chemistry not given here, further chemistry not given here; listed as Homo sapiens) | 1 | – | –
30 | CR003025 (guide GUGACUGGCAGUCUCCUAGU; targeting domain within dual guide RNA, chemistry not given here, further chemistry not given here; listed as Homo sapiens) | – | 24.52 | 19.21
31 | CR003026 (guide AGUCGCUCACUGGUCCCACU; targeting domain within dual guide RNA, chemistry not given here, further chemistry not given here; listed as Homo sapiens) | – | 29.63 | 20.05
